From PubChem BioAssay AID2305 (GlaxoSmithKline (GSK), 2010)
pIC50: −log10 of the molar value. Several values for one entry are separate records, joined by “and”; a condition that tells them apart may be missing. Equal entries are not always repeated.

tested on: P. falciparum 3D7 growth, pLDH absorbance; assay: blood-stage malaria parasite growth potency – strain 3D7, dose response (AID 2305)

Point of comparison: COc1cc(C2=NN(S(=O)(=O)c3c(C)cc(C)cc3C)CCCC2)ccc1Cl, pIC50 6.11. Against it:
- FC(F)(F)c1ccc2nc(-c3ccc(-c4ccc(CNCCN5CCNCC5)cc4)s3)[nH]c2c1 — within 0.2 log units, 6.04
- Clc1ncnc2scc(-c3ccc(Br)cc3)c12 — within 0.2 log units, 6.05
- CSCCCN1CCC(O)(c2ccc3oc(C(=O)Nc4ccc5sc(C)nc5c4)cc3c2)CC1 — within 0.2 log units, 5.97
- Nc1oc2c(CN3CCCCCC3)c(O)ccc2c(=O)c1-c1nc2ccccc2s1 — within 0.2 log units, 6.28
- CCCn1c(Sc2ccc(C#N)c([N+](=O)[O-])c2)nnc1-c1ccc(N(C)C)cc1 — 0.78 log units higher, 6.89
- O=c1cc(NCCCN(Cc2cc3c(Cl)cc(Cl)cc3[nH]2)Cc2cc3c(Cl)cc(Cl)cc3[nH]2)[nH]c2ccccc12 — 0.81 log units higher, 6.92
- CC(C)CNCc1cccc(-c2ccccc2CN(C(=O)NCCc2ccccc2)C2CCN(Cc3ccccc3)CC2)c1 — within 0.2 log units, 5.93
- Cc1ccc(C)c(Cn2ccc3nc(Cl)nc(Cl)c32)c1 — within 0.2 log units, 6.04
- Nc1nccc2ccc(-c3ccsc3)cc12 — 0.37 log units higher, 6.48
- COc1ccc(-c2ccc(NC(=O)c3ccc(C#N)cc3)cc2)cc1CN(C)CCO — within 0.2 log units, 6.20
- NC(=NCc1ccccc1)Nc1cccc(Cc2ccccc2)n1 — within 0.2 log units, 6.07
- CC(=O)Nc1ncc(C(=O)Nc2cccc(-c3cccc(-c4nc5ccc(C(F)(F)F)cc5[nH]4)c3)c2)s1 — 0.63 log units higher, 6.74
- Clc1cc(Br)ccc1-c1ccc(CNCC2CCNCC2)o1 — 0.29 log units lower, 5.82
- COc1cc2nc(NCCC(C)C)n3nc(-c4ccccc4)nc3c2cc1OC — 0.27 log units higher, 6.38
- CC[C@H](C)CNC(=O)c1ccnc(-c2cccc(CN(C)C3CCN(C)CC3)c2)c1 — within 0.2 log units, 6.05
- CC[C@H]1CN2CC[C@H]1C[C@H]2[C@@H](O)c1cc(OCCCN(C)C)nc2ccc(OC)cc12 — 0.78 log units higher, 6.89
- COc1cccc(Nc2nc(Nc3cccc(C#N)c3)cc(C(F)(F)F)n2)c1 — within 0.2 log units, 6.08
- Cc1ccc2nc(C)n(C3CCN(C(=O)Cc4ccccc4C)CC3)c2c1 — 0.51 log units higher, 6.62
- Cc1cccc2[nH]c(-c3cccc(-c4cccc(NC(=O)CCc5cnc[nH]5)c4)c3)nc12 — within 0.2 log units, 6.26
- CC1CN(Cc2cccc(-c3ccc(-c4nc5ccccc5[nH]4)cc3)c2)CC(C)O1 (stereo unspecified) — within 0.2 log units, 6.07
- OCC1CCN(Cc2ccc(-c3cccc(-c4nc5ccc(F)cc5[nH]4)c3)cc2)CC1 — within 0.2 log units, 6.04
- COc1ccc2c(NN=Cc3cccc(Cl)c3)ccnc2c1 — within 0.2 log units, 6.14
- CC(C)(C)c1ccc(OCC(=O)NC2CCN(c3ccnc4cc(Cl)ccc34)C2)cc1 (stereo unspecified) — 0.78 log units higher, 6.89
- CN(C)c1ccc2nc(N)nc(N)c2c1Cl — 0.22 log units higher, 6.33
- Cc1ccc(CNC(=O)[C@H](Cc2ccccc2)Nc2cc(C)nc(Nc3ccccc3)n2)cc1 — within 0.2 log units, 6.07
- CCCCN1CC[C@@H](CCC(O)c2cc(OCCC)nc3ccc(OC)cc23)[C@@H](CC)C1 (stereo partly specified) — 0.33 log units higher, 6.44
- COc1ccc(CCNCCCCCCNCCc2ccc(Cl)c(Cl)c2)cc1OC — within 0.2 log units, 6.03
- CC1(C)N=C(N)N=C(N)N1c1cc(Cl)c(Cl)cc1Cl — 0.63 log units higher, 6.74
- CCOC(=O)c1ccc(NC(=O)Nc2ccc(-c3ccc(-c4nc5ccccc5[nH]4)cc3)cc2)cc1 — 1.59 log units higher, 7.70
- COc1c(C2CCN(CCCCNC(=O)C=Cc3cc4cc(Cl)ccc4o3)CC2)ccc2c1CCCC2 — 0.23 log units lower, 5.88
- COc1ccc(NC(=O)c2ccc3cc4ccccc4cc3c2)cc1N1CCN(C)CC1 — within 0.2 log units, 5.99
- NC(N)=NC(=O)Nc1cc(Br)c(Cl)c(C(F)(F)F)c1 — within 0.2 log units, 6.12
- Nc1nc(NCC2CCC(CNS(=O)(=O)c3cccc4ccccc34)CC2)nc2ccccc12 (stereo unspecified) — within 0.2 log units, 6.10
- N#Cc1cccc(C(=O)N2CCOC(CCN3CCC(c4ccccc4)CC3)(c3ccc(Cl)c(Cl)c3)C2)c1 (stereo unspecified) — within 0.2 log units, 5.98
- N#Cc1ccc2c(c1)CCN(CCC1CCC(NC(=O)/C=C/c3cccc4ccccc34)CC1)CC2 (stereo unspecified) — within 0.2 log units, 6.14
- FC(F)(F)c1cnc(Sc2nnc(-c3ccncc3)o2)c(Cl)c1 — 0.46 log units higher, 6.57
- COc1ccc(-c2nc(NC(=O)CS(=O)(=O)c3ccc(C)cc3)sc2C)cc1 — 0.29 log units higher, 6.40
- Cc1[nH]c(C)c(-c2ccc(-c3ccc(F)cc3)nc2)c(=O)c1Br — 0.49 log units higher, 6.60
- CNCCNCc1ccc(-c2ccc(-c3nc4ccc(C(F)(F)F)cc4[nH]3)cc2)cc1 — 0.40 log units higher, 6.51

With COc1ccc(C=CC(=O)NC2CCC(CN3CCC(c4c[nH]c5ccccc45)CC3)CC2)cc1OC (stereo unspecified) the pIC50 was 6.08 and 6.10.
